The record followed here is patent publication US20260028354A1, “TETRAHYDRONAPHTHALENE DERIVATIVES AS ESTROGEN RECEPTOR DEGRADERS” (REGENT OF THE UNIVERSITY OF MICHIGAN, priority 2022, published 2026).

Experiment [1] can be described thus: Western blot analysis for "B" compounds. The experiment is classed as cell-based. The note with it: read-out: Traditional Western Degradation Potency (DC50). The method, boiled down: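 Compound-treated cells lysed in RIPA buffer with protease inhibitors; equal protein (BCA) run on 10% SDS-PAGE, transferred to PVDF and probed with target antibodies. Band intensities quantified by densitometry and normalized to GAPDH.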

A short description of experiment [2]: Cell growth assay (WST-8) for "B" compounds. The experiment is classed as cell-based. Particulars: T47D cell line, read-out: Cell growth Inhibition in T47D cell line IC50. The procedure:
Cell Growth Assay. The cells were seeded at 1500/well in 96 well plates overnight. One day after the seeding, they were treated with indicated doses of compounds respectively, 4 days after the compound treatment, 10% WST-8 reagent was added to the culture medium and incubate in a CO2 incubator at 37° C. for 2.5 hours. Before reading, the plate was mixed gently on an orbital shaker for one minute to ensure homogeneous distribution of color. The absorbance was measured of each sample using a microplate reader at a wavelength of 450 nm. The relative absorbance was calculated against the vehicle control from three individually repeats.

Structures are written as SMILES. pIC50: −log10 of the molar value. Where two headings read alike, the source gives them in different places. Where only a bound is given, the exact number is not on record here.

Consider `O=C1CCC(N2C(=O)c3cc4c(cc3C2=O)CN(CC(=O)N2CC3(CCN(c5ccc([C@@H]6c7ccc(O)cc7CC[C@@H]6c6ccccc6)cc5)CC3)C2)C4)C(=O)N1` (mixture of isomers) [Compound B5, 2-(2,6-dioxopiperidin-3-yl)-6-(2-(7-(4-((1R,2S)-6-hydroxy-2-phenyl-1,2,3,4-tetrahydronaphthalen-1-yl)phenyl)-2,7-diazaspiro[3.5]nonan-2-yl)-2-oxoethyl)-6,7-dihydropyrrolo[3,4-f]isoindole-1,3(2H,5H)-dione], for which the DC50 (in general, the concentration at which degradation of the target reaches its halfway point) in experiment [1] is below 10 nM. Also, the pIC50 (commonly the negative decadic logarithm of the IC50, by convention in mol/L) in experiment [2] is below 8.00.

`O=C1CCC(N2C(=O)c3cc4c(cc3C2=O)CN(CC(=O)N2CCC3(CC2)CCN(c2ccc([C@@H]5c6ccc(O)cc6CC[C@@H]5c5ccccc5)cc2)CC3)C4)C(=O)N1` (mixture of isomers) [Compound B12, 2-(2,6-dioxopiperidin-3-yl)-6-(2-(9-(4-((1R,2S)-6-hydroxy-2-phenyl-1,2,3,4-tetrahydronaphthalen-1-yl)phenyl)-3,9-diazaspiro[5.5]undecan-3-yl)-2-oxoethyl)-6,7-dihydropyrrolo[3,4-f]isoindole-1,3(2H,5H)-dione]: in experiment [1], the DC50 fell in the range of 10 to 100 nM. Also, in experiment [2], the pIC50 is below 8.00.

Consider `C[C@H]1CC2(CCN(c3ccc([C@@H]4c5ccc(O)cc5CC[C@@H]4c4ccccc4)cc3)CC2)CN1C(=O)CN1Cc2cc3c(cc2C1)C(=O)N(C1CCC(=O)NC1=O)C3=O` (mixture of isomers) [Compound B23, 2-(2,6-dioxopiperidin-3-yl)-6-(2-((S)-8-(4-((1R,2S)-6-hydroxy-2-phenyl-1,2,3,4-tetrahydronaphthalen-1-yl)phenyl)-3-methyl-2,8-diazaspiro[4.5]decan-2-yl)-2-oxoethyl)-6,7-dihydropyrrolo[3,4-f]isoindole-1,3(2H,5H)-dione], for which the DC50 in experiment [1] was 10 to 100 nM. Besides, the pIC50 in experiment [2] (T47D) was below 8.00.

`C[C@H]1CC2(CCN(C(=O)CN3Cc4cc5c(cc4C3)C(=O)N(C3CCC(=O)NC3=O)C5=O)CC2)CN1c1ccc([C@@H]2c3ccc(O)cc3CC[C@@H]2c2ccccc2)cc1` (mixture of isomers) [Compound B24, 2-(2,6-dioxopiperidin-3-yl)-6-(2-((S)-2-(4-((1R,2S)-6-hydroxy-2-phenyl-1,2,3,4-tetrahydronaphthalen-1-yl)phenyl)-3-methyl-2,8-diazaspiro[4.5]decan-8-yl)-2-oxoethyl)-6,7-dihydropyrrolo[3,4-f]isoindole-1,3(2H,5H)-dione]: the 50% degradation concentration (DC50) in experiment [1] fell in the range of 10 to 100 nM. The pIC50 in experiment [2] (T47D) was below 8.00.

`C[C@H]1CC2(CCN(c3ccc([C@@H]4c5ccc(O)cc5CC[C@@H]4c4ccccc4)cc3)CC2)CN1CC(=O)N1Cc2cc3c(cc2C1)C(=O)N(C1CCC(=O)NC1=O)C3=O` (mixture of isomers) [Compound B30, 2-(2,6-dioxopiperidin-3-yl)-6-(2-((S)-8-(4-((1R,2S)-6-hydroxy-2-phenyl-1,2,3,4-tetrahydronaphthalen-1-yl)phenyl)-3-methyl-2,8-diazaspiro[4.5]decan-2-yl)acetyl)-6,7-dihydropyrrolo[3,4-f]isoindole-1,3(2H,5H)-dione]: the DC50 in experiment [1] is above 100 nM. In addition, the pIC50 in experiment [2] (T47D) was below 8.00.

`O=C1CCC(N2C(=O)c3cc4c(cc3C2=O)CN(CC(=O)N2CC3(CCN(c5ccc([C@@H]6c7ccc(O)cc7CC[C@@H]6c6ccccc6)cc5F)CC3)C2)C4)C(=O)N1` (mixture of isomers) [Compound B43, 2-(2,6-dioxopiperidin-3-yl)-6-(2-(7-(2-fluoro-4-((1R,2S)-6-hydroxy-2-phenyl-1,2,3,4-tetrahydronaphthalen-1-yl)phenyl)-2,7-diazaspiro[3.5]nonan-2-yl)-2-oxoethyl)-6,7-dihydropyrrolo[3,4-f]isoindole-1,3(2H,5H)-dione]: in experiment [1], the DC50 was above 100 nM. For the same compound, the pIC50 in experiment [2] (T47D) is 8.00 to 9.00.

In the case of `O=C1CCC(N2C(=O)c3cc4c(cc3C2=O)CN(CC(=O)N2CC3(CCN(c5ccc([C@@H]6c7ccc(O)cc7CC[C@@H]6c6ccccc6)c(F)c5)CC3)C2)C4)C(=O)N1` (mixture of isomers) [Compound B44, 2-(2,6-dioxopiperidin-3-yl)-6-(2-(7-(3-fluoro-4-((1S,2S)-6-hydroxy-2-phenyl-1,2,3,4-tetrahydronaphthalen-1-yl)phenyl)-2,7-diazaspiro[3.5]nonan-2-yl)-2-oxoethyl)-6,7-dihydropyrrolo[3,4-f]isoindole-1,3(2H,5H)-dione], the DC50 in experiment [1] was 10 to 100 nM. In addition, the negative logarithm of the IC50 (pIC50) in experiment [2] (T47D) is below 8.00.

As to `O=C1CCC(N2C(=O)c3cc4c(cc3C2=O)CN(CC(=O)N2CCC3(CC2)CCN(c2c(F)cc([C@@H]5c6ccc(O)cc6CC[C@@H]5c5ccccc5)cc2F)CC3)C4)C(=O)N1` (mixture of isomers) [Compound B45, 6-(2-(9-(2,6-difluoro-4-((1R,2S)-6-hydroxy-2-phenyl-1,2,3,4-tetrahydronaphthalen-1-yl)phenyl)-3,9-diazaspiro[5.5]undecan-3-yl)-2-oxoethyl)-2-(2,6-dioxopiperidin-3-yl)-6,7-dihydropyrrolo[3,4-f]isoindole-1,3(2H,5H)-dione], the DC50 in experiment [1] was above 100 nM. For the same compound, the pIC50 in experiment [2] (T47D) is below 8.00.

As for `O=C1CCC(N2C(=O)c3cc4c(cc3C2=O)CN(CC(=O)N2CCC3(CC2)CCN(c2cc(F)c([C@@H]5c6ccc(O)cc6CC[C@@H]5c5ccccc5)c(F)c2)CC3)C4)C(=O)N1` (mixture of isomers) [Compound B46, 6-(2-(9-(3,5-difluoro-4-((1S,2S)-6-hydroxy-2-phenyl-1,2,3,4-tetrahydronaphthalen-1-yl)phenyl)-3,9-diazaspiro[5.5]undecan-3-yl)-2-oxoethyl)-2-(2,6-dioxopiperidin-3-yl)-6,7-dihydropyrrolo[3,4-f]isoindole-1,3(2H,5H)-dione], the DC50 in experiment [1] is above 100 nM. In experiment [2] (T47D), the pIC50 is below 8.00.

As for `O=C1CCC(N2C(=O)c3cc4c(cc3C2=O)CN(CC(=O)N2CCC3(CC2)CCN(c2ccc([C@@H]5c6ccc(O)cc6CC[C@@H]5C5CCCCC5)cc2)CC3)C4)C(=O)N1` (mixture of isomers) [Compound B47, 6-(2-(9-(4-((1R,2R)-2-cyclohexyl-6-hydroxy-1,2,3,4-tetrahydronaphthalen-1-yl)phenyl)-3,9-diazaspiro[5.5]undecan-3-yl)-2-oxoethyl)-2-(2,6-dioxopiperidin-3-yl)-6,7-dihydropyrrolo[3,4-f]isoindole-1,3(2H,5H)-dione], in experiment [1], the DC50 lay within 10 to 100 nM. Moreover, the pIC50 in experiment [2] (T47D) was 8.00 to 9.00.

As for `O=C1CCC(N2C(=O)c3cc4c(cc3C2=O)CN(CC(=O)N2CCC3(CC2)CCN(c2ccc([C@@H]5c6ccc(O)cc6CC[C@@H]5C5CCC(F)(F)CC5)cc2)CC3)C4)C(=O)N1` (mixture of isomers) [Compound B48, 6-(2-(9-(4-((1R,2R)-2-(4,4-difluorocyclohexyl)-6-hydroxy-1,2,3,4-tetrahydronaphthalen-1-yl)phenyl)-3,9-diazaspiro[5.5]undecan-3-yl)-2-oxoethyl)-2-(2,6-dioxopiperidin-3-yl)-6,7-dihydropyrrolo[3,4-f]isoindole-1,3(2H,5H)-dione], the DC50 in experiment [1] lay in the range of 10 to 100 nM. The pIC50 in experiment [2] (T47D) was 8.00 to 9.00.

Consider `O=C1CCC(N2C(=O)c3cc4c(cc3C2=O)CN(CC(=O)N2CCC3(CC2)CCN(c2ccc([C@@H]5c6ccc(B(O)O)cc6CC[C@@H]5c5ccccc5)cc2)CC3)C4)C(=O)N1` (mixture of isomers) [Compound B50, ((5R,6S)-5-(4-(9-(2-(6-(2,6-dioxopiperidin-3-yl)-5,7-dioxo-3,5,6,7-tetrahydropyrrolo[3,4-f]isoindol-2(1H)-yl)acetyl)-3,9-diazaspiro[5.5]undecan-3-yl)phenyl)-6-phenyl-5,6,7,8-tetrahydronaphthalen-2-yl)boronic acid], for which the DC50 in experiment [1] was in the range of 10 to 100 nM. The pIC50 in experiment [2] (T47D) was below 8.00.

Regarding `O=C1CCC(N2C(=O)c3cc4c(cc3C2=O)CN(CC(=O)N2CCC3(CC2)CCN(c2ccc([C@@H]5c6ccc(O)cc6CCC56CCCC6)cc2)CC3)C4)C(=O)N1` (stereo in doubt) [Compound B49, 2-(2,6-dioxopiperidin-3-yl)-6-(2-(9-(4-(6'-hydroxy-3',4'-dihydro-1'H-spiro[cyclopentane-1,2'-naphthalen]-1'-yl)phenyl)-3,9-diazaspiro[5.5]undecan-3-yl)-2-oxoethyl)-6,7-dihydropyrrolo[3,4-f]isoindole-1,3(2H,5H)-dione], the DC50 in experiment [1] fell in the range of 10 to 100 nM. For the same compound, the negative logarithm of the IC50 (pIC50) in experiment [2] (T47D) is 8.00 to 9.00.

In the case of `O=C1CCC(N2C(=O)c3cc4c(cc3C2=O)CN(CC(=O)N2CC3(CCN(c5ccc([C@@H]6c7ccc(O)cc7CC[C@@H]6c6ccccc6)cc5)CC3)C2)C4)C(=O)N1` (stereo partly drawn) [Compound B28, 2-(2,6-dioxopiperidin-3-yl)-6-(2-(7-(4-((1R,2S)-6-hydroxy-2-phenyl-1,2,3,4-tetrahydronaphthalen-1-yl)phenyl)-2,7-diazaspiro[3.5]nonan-2-yl)-2-oxoethyl)-6,7-dihydropyrrolo[3,4-f]isoindole-1,3(2H,5H)-dione], the DC50 in experiment [1] is below 10 nM. Further, the negative-log IC50 (pIC50) in experiment [2] is 8.00 to 9.00.

For the compound `O=C1CCC(N2C(=O)c3cc4c(cc3C2=O)CCN(CC(=O)N2CCC3(CC2)CCN(c2ccc([C@@H]5c6ccc(O)cc6CC[C@@H]5c5ccc(F)cc5)cc2)CC3)CC4)C(=O)N1` (stereo partly drawn) [Compound B52, 2-(2,6-dioxopiperidin-3-yl)-7-(2-(9-(4-((1R,2S)-2-(4-fluorophenyl)-6-hydroxy-1,2,3,4-tetrahydronaphthalen-1-yl)phenyl)-3,9-diazaspiro[5.5]undecan-3-yl)-2-oxoethyl)-6,7,8,9-tetrahydroazepino[4,5-f]isoindole-1,3(2H,5H)-dione], the DC50 in experiment [1] is above 100 nM. The pIC50 in experiment [2] (T47D) was 8.00 to 9.00.
